molecular target: T1, human β3 adrenergic receptor (Homo sapiens, UniProt P13945); assay: Beta-3 agonist in vitro functional assay: cAMP production (LANCE TR-FRET) in CHO cells stably transfected with the cloned β3 receptor; format: cell-based; conditions: Table 12; human β3 functional activity given as ranges; read-out: Human β3 agonist functional activity
T1 construct: expressed in transfected cells; host or cells: Chinese hamster ovary (CHO) cells, stably transfected
Method: Chinese hamster ovary (CHO) cells, stably transfected with the cloned β-adrenergic receptor (β1, β2 or β3) are harvested after 3 days of subculturing. Harvesting of cells is done with Enzyme-free Dissociation Media (Specialty Media). Cells are then counted and resuspended in assay buffer (Hank's Balanced salt solution supplemented with 5 mM HEPES, […]) containing a phosphodiesterase inhibitor (IBMX, 0.6 mM). The reaction is initiated by mixing 6,000 cells in 6 μL with 6 μL Alexa Fluor labeled cAMP antibody (LANCE™ kit) which is then added to an assay well containing 12 μL of compound (diluted in assay buffer to 2× final concentration). The reaction proceeds for 30 minutes at RT and is terminated by the addition of 24 ul detection buffer (LANCE™ kit). The assay plate is then incubated for 1 h at RT and time-resolved fluorescence measured on a Perkin Elmer Envision reader or equivalent. The unknown cAMP level is determined by comparing fluorescence levels to a cAMP standard curve.
The non-selective, full agonist β-adrenergic ligand isoproterenol is used at all three receptors to determine maximal stimulation. […] Data are analyzed using Microsoft Excel and Graphpad Prism or an internally developed data analysis software package.

T1 sequence (P13945 whole entry): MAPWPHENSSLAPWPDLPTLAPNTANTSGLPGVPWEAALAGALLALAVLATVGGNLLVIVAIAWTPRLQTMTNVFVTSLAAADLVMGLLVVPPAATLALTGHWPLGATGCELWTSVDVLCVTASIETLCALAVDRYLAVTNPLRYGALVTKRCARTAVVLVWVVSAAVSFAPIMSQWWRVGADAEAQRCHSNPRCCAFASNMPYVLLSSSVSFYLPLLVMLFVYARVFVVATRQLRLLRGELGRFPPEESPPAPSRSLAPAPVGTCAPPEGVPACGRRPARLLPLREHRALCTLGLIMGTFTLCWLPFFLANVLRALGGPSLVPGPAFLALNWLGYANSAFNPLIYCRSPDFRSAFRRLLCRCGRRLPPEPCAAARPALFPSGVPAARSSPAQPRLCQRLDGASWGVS

`CC(c1ncc2ccccc2n1)N1CCN(C(=O)c2ccc(C[C@@H]3CC[C@H]([C@H](O)c4ccccc4)N3)cc2)CC1` (mixture of isomers) [Example 572] and `CC(c1ccccc1F)N1CCN(C(=O)c2ccc(CC3CCC(C(O)c4ccccc4)N3)cc2)CC1` (single isomer, unassigned) [Example 573] fall in the same range of EC50: 1 to 9.9 nM for the first, 1 to 9.9 nM for the second.

`O=C(c1ccc(CC2CCC(C(O)c3cccnc3)N2)cc1)N1CCC2(CC1)C(=O)NCC2c1ccc(F)cc1` (single isomer, unassigned) [Example 555] and `O=C(c1ccc(CC2CCC(C(O)c3ccccc3)N2)cc1)N1CCC2(CC1)C(=O)NCC2c1ccc(F)cc1` (single isomer, unassigned) [Example 557] fall in the same range of EC50: 1 to 9.9 nM for the first, 1 to 9.9 nM for the second.

First: O=C(c1ccc(CC2CCC(C(O)c3cccnc3)N2)cc1)N1CCC2(CC1)C(=O)NCC2c1ccc(F)cc1 (single isomer, unassigned) [Example 556]
Second: O=C(c1ccc(CC2CCC(C(O)c3ccccc3)N2)cc1)N1CCC2(CC1)C(=O)NCC2c1ccc(F)cc1 (single isomer, unassigned) [Example 558]
The EC50 of the first is higher: 1 to 9.9 nM for the first, less than 1 nM for the second. The second is the more potent here.

First: O=C1CC(c2ccccc2)C2(CCN(C(=O)c3ccc(CC4CCC(C(O)c5cccnc5)N4)cc3)CC2)O1 (single isomer, unassigned) [Example 559]
Second: CC1CC2(CCN(C(=O)c3ccc(CC4CCC(C(O)c5ccccc5)N4)cc3)CC2)C(=O)O1 (single isomer, unassigned) [Example 561]
The EC50 of the first is higher: 100 to 999 nM for the first, 1 to 9.9 nM for the second.

`O=C1CC(c2ccccc2)C2(CCN(C(=O)c3ccc(CC4CCC(C(O)c5cccnc5)N4)cc3)CC2)O1` (single isomer, unassigned) [Example 560] and `CC1CC2(CCN(C(=O)c3ccc(CC4CCC(C(O)c5ccccc5)N4)cc3)CC2)C(=O)O1` (single isomer, unassigned) [Example 562] fall in the same range of EC50: 1 to 9.9 nM for the first, 1 to 9.9 nM for the second.

`CCC1CC2(CCN(C(=O)c3ccc(CC4CCC(C(O)c5ccccc5)N4)cc3)CC2)C(=O)O1` (single isomer, unassigned) [Example 563] and `CC(C)C1CC2(CCN(C(=O)c3ccc(CC4CCC(C(O)c5ccccc5)N4)cc3)CC2)C(=O)O1` (single isomer, unassigned) [Example 567] fall in the same range of EC50: 1 to 9.9 nM for the first, 1 to 9.9 nM for the second.

First: CCC1CC2(CCN(C(=O)c3ccc(CC4CCC(C(O)c5ccccc5)N4)cc3)CC2)C(=O)O1 (single isomer, unassigned) [Example 564]
Second: CC(C)C1CC2(CCN(C(=O)c3ccc(CC4CCC(C(O)c5ccccc5)N4)cc3)CC2)C(=O)O1 (single isomer, unassigned) [Example 568]
The EC50 of the first is lower: 1 to 9.9 nM for the first, 10 to 99.9 nM for the second. The first is the more potent here.

`O=C(c1ccc(CC2CCC(C(O)c3ccccc3)N2)cc1)N1CCC2(CC1)CC(C(F)(F)F)OC2=O` (single isomer, unassigned) [Example 565] and `CC(C)(C)C1CC2(CCN(C(=O)c3ccc(CC4CCC(C(O)c5ccccc5)N4)cc3)CC2)C(=O)O1` (single isomer, unassigned) [Example 569] fall in the same range of EC50: 1 to 9.9 nM for the first, 1 to 9.9 nM for the second.

First: O=C(c1ccc(CC2CCC(C(O)c3ccccc3)N2)cc1)N1CCC2(CC1)CC(C(F)(F)F)OC2=O (single isomer, unassigned) [Example 566]
Second: CC(C)(C)C1CC2(CCN(C(=O)c3ccc(CC4CCC(C(O)c5ccccc5)N4)cc3)CC2)C(=O)O1 (single isomer, unassigned) [Example 570]
The EC50 of the first is higher: 10 to 99.9 nM for the first, 1 to 9.9 nM for the second.

Compared with `CC(c1ccccc1F)N1CCN(C(=O)c2ccc(CC3CCC(C(O)c4ccccc4)N3)cc2)CC1` (single isomer, unassigned) [Example 574], `CC(c1ncccc1Cl)N1CCN(C(=O)c2ccc(CC3CCC(C(O)c4ccccc4)N3)cc2)CC1` (single isomer, unassigned) [Example 593] is lower in EC50: 10 to 99.9 nM for the first, 1 to 9.9 nM for the second. The second is the more potent here.

First: CC(c1ccn(C)n1)N1CCN(C(=O)c2ccc(CC3CCC(C(O)c4ccccc4)N3)cc2)CC1 (single isomer, unassigned) [Example 577]
Second: CC(c1cocn1)N1CCN(C(=O)c2ccc(CC3CCC(C(O)c4ccccc4)N3)cc2)CC1 (single isomer, unassigned) [Example 585]
The EC50 of the first is lower: 1 to 9.9 nM for the first, 10 to 99.9 nM for the second. The first is the more potent here.

First: CC(c1ccn(C)n1)N1CCN(C(=O)c2ccc(CC3CCC(C(O)c4ccccc4)N3)cc2)CC1 (single isomer, unassigned) [Example 578]
Second: CC(c1cocn1)N1CCN(C(=O)c2ccc(CC3CCC(C(O)c4ccccc4)N3)cc2)CC1 (single isomer, unassigned) [Example 586]
The EC50 of the first is higher: 100 to 999 nM for the first, 10 to 99.9 nM for the second. The second is the more potent here.

Compared with `CC(c1cscn1)N1CCN(C(=O)c2ccc(C[C@@H]3CC[C@H]([C@H](O)c4ccccc4)N3)cc2)CC1` (single isomer, unassigned) [Example 580], `CC(c1nccs1)N1CCN(C(=O)c2ccc(CC3CCC(C(O)c4ccccc4)N3)cc2)CC1` (single isomer, unassigned) [Example 581] is lower in EC50: 10 to 99.9 nM for the first, 1 to 9.9 nM for the second. The second is the more potent here.

`CC(c1nccs1)N1CCN(C(=O)c2ccc(CC3CCC(C(O)c4ccccc4)N3)cc2)CC1` (single isomer, unassigned) [Example 582] and `CC(c1ncco1)N1CCN(C(=O)c2ccc(CC3CCC(C(O)c4ccccc4)N3)cc2)CC1` (single isomer, unassigned) [Example 583] fall in the same range of EC50: 10 to 99.9 nM for the first, 10 to 99.9 nM for the second.

`CC(c1ncco1)N1CCN(C(=O)c2ccc(CC3CCC(C(O)c4ccccc4)N3)cc2)CC1` (single isomer, unassigned) [Example 584] and `CC(c1ncccn1)N1CCN(C(=O)c2ccc(CC3CCC(C(O)c4ccccc4)N3)cc2)CC1` (single isomer, unassigned) [Example 595] fall in the same range of EC50: 10 to 99.9 nM for the first, 10 to 99.9 nM for the second.

`CCC(c1ccccn1)N1CCN(C(=O)c2ccc(CC3CCC(C(O)c4ccccc4)N3)cc2)CC1` (single isomer, unassigned) [Example 587] and `O=C(c1ccc(CC2CCC(C(O)c3ccccc3)N2)cc1)N1CCN(C(c2ccccn2)C2CC2)CC1` (single isomer, unassigned) [Example 589] fall in the same range of EC50: 10 to 99.9 nM for the first, 10 to 99.9 nM for the second.

`CCC(c1ccccn1)N1CCN(C(=O)c2ccc(CC3CCC(C(O)c4ccccc4)N3)cc2)CC1` (single isomer, unassigned) [Example 588] and `O=C(c1ccc(CC2CCC(C(O)c3ccccc3)N2)cc1)N1CCN(C(c2ccccn2)C2CC2)CC1` (single isomer, unassigned) [Example 590] fall in the same range of EC50: 1 to 9.9 nM for the first, 1 to 9.9 nM for the second.

Compared with `CC(c1cccnn1)N1CCN(C(=O)c2ccc(CC3CCC(C(O)c4ccccc4)N3)cc2)CC1` (single isomer, unassigned) [Example 591], `CC(c1ncccc1Cl)N1CCN(C(=O)c2ccc(CC3CCC(C(O)c4ccccc4)N3)cc2)CC1` (single isomer, unassigned) [Example 594] is lower in EC50: 10 to 99.9 nM for the first, 1 to 9.9 nM for the second.

Compared with `CC(c1cccnn1)N1CCN(C(=O)c2ccc(CC3CCC(C(O)c4ccccc4)N3)cc2)CC1` (single isomer, unassigned) [Example 592], `CC(c1ncccn1)N1CCN(C(=O)c2ccc(CC3CCC(C(O)c4ccccc4)N3)cc2)CC1` (single isomer, unassigned) [Example 596] is lower in EC50: 100 to 999 nM for the first, 10 to 99.9 nM for the second. The second is the more potent here.

`O=C(c1ccc(CC2CCC(C(O)c3ccccc3)N2)cc1)N1CCN(C2CCc3cccnc32)CC1` (single isomer, unassigned) [Example 597] and `O=C(c1ccc(C[C@@H]2CC[C@H]([C@H](O)c3ccccc3)N2)cc1)N1CCN(C2COc3cccnc32)CC1` (single isomer, unassigned) [Example 600] fall in the same range of EC50: 1 to 9.9 nM for the first, 1 to 9.9 nM for the second.

`O=C(c1ccc(CC2CCC(C(O)c3ccccc3)N2)cc1)N1CCN(C2CCc3cccnc32)CC1` (single isomer, unassigned) [Example 598] and `O=C1OCCC1N1CCN(C(=O)c2ccc(CC3CCC(C(O)c4ccccc4)N3)cc2)CC1` (single isomer, unassigned) [Example 603] fall in the same range of EC50: 1 to 9.9 nM for the first, 1 to 9.9 nM for the second.

First: O=C1OCCC1N1CCN(C(=O)c2ccc(CC3CCC(C(O)c4ccccc4)N3)cc2)CC1 (single isomer, unassigned) [Example 604]
Second: O=C(c1ccc(CC2CCC(C(O)c3ccccc3)N2)cc1)N1CCN(C2CCN(C3CC3)C2=O)CC1 (single isomer, unassigned) [Example 607]
The EC50 of the first is lower: 1 to 9.9 nM for the first, 100 to 999 nM for the second. The first is the more potent here.

Compared with `O=C(c1ccc(CC2CCC(C(O)c3ccccc3)N2)cc1)N1CCN(C2CCN(c3ccccc3)C2=O)CC1` (single isomer, unassigned) [Example 605], `O=C(c1ccc(CC2CCC(C(O)c3ccccc3)N2)cc1)N1CCN(C2CCN(C3CC3)C2=O)CC1` (single isomer, unassigned) [Example 608] is higher in EC50: 1 to 9.9 nM for the first, 10 to 99.9 nM for the second.

Compound `O=C(c1ccc(CC2CCC(C(O)c3ccccc3)N2)cc1)N1CCN(C2CCN(c3ccccc3)C2=O)CC1` (single isomer, unassigned) [Example 606] has an EC50 of 10 to 99.9 nM.

same assay, conditions: given as a range; cAMP, CHO cells; read-out: human β3 functional activity

`O=C(c1ccc(C[C@@H]2CC[C@H]([C@H](O)c3ccccc3)N2)cc1)N1CCC2(CC1)CC(C1CC1)OC2=O` (single isomer, unassigned) [Ex. 553] and `O=C(c1ccc(CC2CCC(C(O)c3ccccc3)N2)cc1)N1CCC2(CC1)CC(C1CC1)OC2=O` (single isomer, unassigned) [Ex. 554] fall in the same range of EC50: 1 to 9.9 nM for the first, 1 to 9.9 nM for the second.

Work on `O=C(c1ccc(C[C@@H]2CC[C@H]([C@H](O)c3ccccc3)N2)cc1)N1CC2CC(n3cccn3)CC2C1` (stereo partly drawn) [Example 1, (R)-phenyl[(2R,5S)-5-(4-{[5-(1H-pyrazol-1-yl)hexahydrocyclopenta[c]pyrrol-2(1H)-yl]carbonyl}benzyl)pyrrolidin-2-yl]methanol] yielded an EC50 of 10 to 99.9 nM.
